According to article PMC8849047, “Salicylate metal-binding isosteres as fragments for metalloenzyme inhibition” (Chemical Science, 2022):
Like-named read-outs stand apart in the source and are kept apart here.

Legend:
[1] = target: T1, Recombinant human glyoxalase I (GLO1) (Homo sapiens, UniProt Q04760); test: GLO1 enzyme inhibition assay (absorbance at 240 nm); format: biochemical; details: for inhibition at 100 µM: read-out: %inhib GLO1; for IC50: dose-response curves, read-out: IC50 against GLO1
T1 construct: purchased R&D Systems 4959-GL
T1 sequence (Q04760 2-184 limits assumed): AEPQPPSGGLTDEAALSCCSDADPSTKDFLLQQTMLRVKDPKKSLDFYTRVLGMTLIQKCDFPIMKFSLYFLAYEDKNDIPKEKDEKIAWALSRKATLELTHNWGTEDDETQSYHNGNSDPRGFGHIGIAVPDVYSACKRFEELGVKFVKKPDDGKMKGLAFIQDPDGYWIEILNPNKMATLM
Protocol: To evaluate if the salicylate MBIs could serve as starting points for future FBDD campaigns, the MBI library was screened for inhibitory activity against human glyoxalase I (GLO1) at fragment concentrations of 100 μM (Table 2). […] Recombinant human glyoxalase I (GLO1) was purchased from R&D Systems (catalog #4959-GL). Assays were carried out in 0.1 M sodium phosphate, pH 7.0 buffer, utilizing 96-well clear UV plates (Corning UV Transparent Microplates, catalog #3635). A fresh solution of GSH (100 mM) and methylglyoxal (MG) (100 mM) was prepared in Millipore grade water. […] The substrate mixture was vortexed vigorously for 45 s and then allowed to sit at room temperature for 15 min. The initial well volume was 50 μL containing GLO1 (40 ng) and inhibitor. This protein and inhibitor mixture was incubated for 15–20 min prior to addition of the substrate. […] The enzyme activity was measured utilizing a Biotek Synergy HT or H4 plate reader by measuring absorbance at 240 nm every 1 min for a duration of 8 min. The rate of absorbance increase was compared for samples versus controls containing no inhibitor (set at 100% activity). The absorbance reading for background wells containing DMSO, buffer, and substrate (no enzyme or inhibitor) was subtracted from the experimental wells. […] Dose-response curves were generated, analysed and fitted to obtain IC50 values (see ESI ^†).
5. Single Point screening
Single point screening of salicylate MBI library against GLO1 at 100 µM inhibitor concentration. Chugai 1 (4,6-diphenyl-N-hydroxypyridone) 4 as positive control. […]
6. Dose-response curves against GLO1
The raw data from the GLO1 assay was background corrected and normalized from 0 to 100 with 100 being the largest mean of each dataset. A variable slope log-logistic model was chosen for curve fitting.
The corresponding datapoints are shown as empty bullets and were not included in the curve-fitting. The resulting restricted datasets were fitted according to a literature procedure setting the lower limit of the dose-response curve to zero. This compensates for the loss of information caused by trimming of the dataset. 5,6
Figure S7. Dose-response curve of 11 against GLO1.

[2] = target: T2, Human recombinant MMP-3 catalytic domain (Homo sapiens, UniProt P08254); test: MMP-3 enzyme inhibition assay (chromogenic substrate, 412 nm); format: biochemical; details: standard deviation in parentheses, read-out: %inhib MMP-3
T2 construct: Human recombinant MMP-3 catalytic domain was purchased; purchased ENZO Life Sciences BML-SE109-9090
Protocol: To probe the selectivity of the salicylate MBIs, the library was screened against matrix metalloproteinase-3 (MMP-3) at fragment concentrations of 100 μM (Table 2).
Human recombinant MMP-3 catalytic domain was purchased from ENZO Life Sciences (catalog # BML-SE109-9090). Assays were carried out in clear Costar 96-well, half-area, flat-bottom assay plates (catalog # 80-2404). Each well contained a total volume of 100 μL including buffer (50 mM MES, 10 mM CaCl2, 0.05% Brij-35, 1 mM DNTB, pH 6.0), MMP-3 (2 U), and the fragment solution. After a 30 min incubation period at 37 °C, the reaction was initiated by the addition of 10 μL of chromogenic MMP-3 substrate (100 μM final concentration, Ac-Pro-Leu-Gly-[2-mercap-to-4-methyl-pentanoyl]-Leu-Gly-OC2H5, ENZO Life Sciences, catalog #BML-P125-0005). Absorbance was monitored at 412 nm using a Bio-Tek ELx 808 colorimetric plate reader, and measurements were recorded every minute for 10 min. The rate of absorbance increase was compared for samples versus negative controls (no inhibitor, arbitrarily set as 100% activity).
5. Single Point screening […]
Figure S5. Single point screening of salicylate MBI library against MMP-3 at 100 µM inhibitor
concentration. NNGH as positive control.

[3] = pKa by potentiometric titration (Sirius T3); format: physicochemical
Protocol: In addition to gaining an understanding about the metal coordinating properties of the salicylate MBIs by using [(Tp^Ph,Me)Zn(MBI)] model complexes, the physicochemical properties of the MBIs were also studied.
(§1) Physicochemical properties were determined using a Sirius T3 instrument.[23–25] […] The pKa of a compound was determined by analysing each MBI sample in triplicate using potentiometric titrations. Experiments were typically performed over a pH range of 2.0–12.0. Standard deviations were derived from fitting all three replicate experiments. For water insoluble compounds methanol was added and the obtained apparent pKa (psKa) was extrapolated to the aqueous pKa by the Yasuda–Shedlovsky procedure. log P was determined via potentiometric titrations in the presence of varying ratios of octanol and water. The presence of octanol shifts the pKa of ionizable species, and based on the shifts, a log P can be determined. Measurements for log P determination were typically performed over a pH range of 2.0–12.0. Three experiments with varying ratios of water:octanol was performed, allowing for a standard deviation to be determined from the fitting of all measurements. MBI sample sizes were ∼0.5 mg for both pKa and log P measurements.

[4] = test system: influenza H1N1 N-terminal PA endonuclease (PAN); test: PAN endonuclease inhibition assay (fluorescent ssDNA-oligo substrate); format: biochemical; details: 100 μM; standard deviation in parentheses
[5] = log P by potentiometric titration octanol/water (Sirius T3); log D7.4 calculated from pKa and log P; format: physicochemical; details: for logD: pH 7.4
Protocol: In addition to gaining an understanding about the metal coordinating properties of the salicylate MBIs by using [(Tp^Ph,Me)Zn(MBI)] model complexes, the physicochemical properties of the MBIs were also studied. The acidity (pKa) and lipophilicity (log P) were measured using potentiometric methods and the lipophilicity at physiological pH (log D7.4) was calculated from these two values (Table 1).[23–25]
as §1

[6] = 100 μM, standard deviation in parentheses
[7] = potentiometric, 0.15 M KCl, triplicate, read-out: pKa (pKa,1)
[8] = calculated from measured pKa and log P, read-out: log D7.4
[9] = potentiometric, octanol/water, read-out: log P

T2 sequence (P08254 100-272 limits assumed): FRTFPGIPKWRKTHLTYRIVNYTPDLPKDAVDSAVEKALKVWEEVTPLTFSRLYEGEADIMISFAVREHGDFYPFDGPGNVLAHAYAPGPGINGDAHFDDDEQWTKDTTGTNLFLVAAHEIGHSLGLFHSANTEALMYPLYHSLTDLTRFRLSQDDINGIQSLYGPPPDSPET

Compound | inhibition at 100 µM [2] [%] | pKa ([3]; pKa) | pKa ([3]; pKa (pKa,1)) | %inhib Endo (PAN) [4] | logP [5] | logD [5] | inhibition at 100 µM [1, 6] [%] | also measured
O=c1cc(-c2ccccc2)cc(-c2ccccc2)n1O [1-hydroxy-4,6-diphenylpyridin-2(1H)-one, reference compound] |  |  |  |  |  |  |  | GLO1 inhibition by positive control ([1]; 50 μM): complete inhibition
CS(=O)(=O)Nc1ccccc1C(=O)O [Compound 2] | 11 | 10.8 | 3.04 | 1 (9) % | 1.39 | -2.97 | 18 | 
O=C(O)c1cccc2oc(=O)[nH]c12 [Compound 3] | 0 | 10.3 | 3.65 | 11 (7) % | 1.28 | -2.47 | 29 | 
O=C(O)c1cccc2nc[nH]c12 [Compound 4] | 3 | 5.49 | 3.04 | 0% | -1.4 | -2.09 | 38 | pKa ([3]; pKa (third printed value)): 12.8
O=C(O)c1cccc2nn[nH]c12 [Compound 5] | 0 | 9.29 | 3.49 | 22 (7) % | 1.38 | -2.37 | 20 | 
COC(=O)c1ccccc1O [Compound 6] | 0 |  | 9.8 | 21 (6) % | 2.19 | 2.19 | 10 | 
CONC(=O)c1ccccc1O [Compound 7] | 0 | 12 | 7.23 | 46 (8) % | 0.85 | 0.49 | 22 | 
Oc1ccccc1-c1nnn[nH]1 [Compound 8] | 6 | 10.9 | 4.63 |  | 1.54 | -0.46 | 24 | 
Oc1ccccc1C1(O)COC1 [Compound 9] | 0 |  | 9.38 | 17 (9) % | 0.43 | 0.42 | 9 | 
Oc1ccccc1-c1ncccn1 [Compound 10] | 0 |  |  |  |  |  | 15 | 
Oc1ccc(-c2ccccc2)cc1-c1nc2ccccc2s1 [Compound 11a] |  |  |  |  |  |  |  | IC50 [1]: 5 ± 1.5 µM
Cc1cccc(-c2ccc(O)c(-c3nc4ccccc4s3)c2)c1 [Compound 11b] |  |  |  |  |  |  |  | IC50 [1]: 6.8 ± 1.4 µM
Oc1ccc(-c2cccc(Cl)c2)cc1-c1nc2ccccc2s1 [Compound 11c] |  |  |  |  |  |  |  | IC50 [1]: 3.3 ± 0.7 µM
Oc1ccc(N2CCCCC2)cc1-c1nc2ccccc2s1 [Compound 11d] |  |  |  |  |  |  |  | IC50 [1]: > 20 µM
Oc1ccc(N2CCOCC2)cc1-c1nc2ccccc2s1 [Compound 11e] |  |  |  |  |  |  |  | IC50 [1]: > 50 µM
Oc1ccc(N2CCCC2)cc1-c1nc2ccccc2s1 [Compound 11f] |  |  |  |  |  |  |  | IC50 [1]: 4.4 ± 1.8 µM

Compound | inhibition at 100 µM [2] [%] | pKa ([3]; pKa) | pKa ([3]; pKa (pKa,1)) | %inhib Endo (PAN) [4] | logP [5] | logD [5] | inhibition at 100 µM [1, 6] [%] | also measured
Oc1ccc(-c2ccoc2)cc1-c1nc2ccccc2s1 [Compound 11g] |  |  |  |  |  |  |  | IC50 [1]: 6.9 ± 2.8 µM
COC(=O)c1ccccc1NS(C)(=O)=O [Compound 12] | 12 |  |  | 33 (11) % |  |  |  | pKa [3, 7]: 8.86; logD [5, 8]: 1.49; logP [5, 9]: 1.51; inhibition at 100 µM [1]: 18%
COC(=O)c1cccc2oc(=O)[nH]c12 [Compound 13] | 0 |  | 8.78 | 46 (7) % | 1.24 | 1.22 | 31 | 
COC(=O)c1cccc2nc[nH]c12 [Compound 14] | 7 | 12.3 | 4.51 | 37 (5) % | 1.73 | 1.73 | 19 | 
COC(=O)c1cccc2nn[nH]c12 [Compound 15] | 0 |  | 7.96 | 42 (6) % | 1.31 | 1.21 | 22 | 
CONC(=O)c1ccccc1NS(C)(=O)=O [Compound 16] | 0 | 11.3 | 7.15 | 44 (6) % | 0.12 | -0.33 | 16 | 
CONC(=O)c1cccc2oc(=O)[nH]c12 [Compound 17] | 0 | 12.5 | 7.58 | 23 (6) % | 0.4 | 0.18 | 33 | 
CONC(=O)c1cccc2nc[nH]c12 [Compound 18] | 0 | 8.4 | 4.23 | 22 (7) % | 0.05 | 0.01 | 20 | pKa ([3]; pKa (third printed value)): > 12
CONC(=O)c1cccc2nn[nH]c12 [Compound 19] | 0 | 9.93 | 6.99 | 31 (7) % | 0.75 | 0.22 | 17 | 
CS(=O)(=O)Nc1ccccc1-c1nnn[nH]1 [Compound 20] | 3 |  |  | 43 (4) % |  |  |  | pKa ([3]; potentiometric, 0.15 M KCl, triplicate, read-out: pKa): 9.52; pKa [3, 7]: 3.62; logD [5, 8]: -0.43; logP [5, 9]: 1.18; inhibition at 100 µM [1]: 10%
O=c1[nH]c2c(-c3nnn[nH]3)cccc2o1 [Compound 21] | 0 |  |  | 0% |  |  | 39 | 
c1cc(-c2nnn[nH]2)c2[nH]cnc2c1 [Compound 22] | 74 |  |  |  |  |  | 50 | 
OC1(c2cccc3nc[nH]c23)COC1 [Compound 23] | 4 |  |  | 22 (8) % |  |  | 10 | 
OC1(c2cccc3nn[nH]c23)COC1 [Compound 24] | 0 |  |  | 32 (8) % |  |  | 19 | 
CS(=O)(=O)Nc1ccccc1-c1ncccn1 [Compound 25] | 0 |  |  | 21 (8) % |  |  | 19 | 
